Reference: patent US9023865B2, “Compounds that are ERK inhibitors” (Merck Sharp & Dohme Corp., priority 2011, dated 2015)

Target: Active Human ERK2 (hERK2) (Homo sapiens (Human), UniProt P28482)
Assay: Active Human ERK2 (hERK2) Activity Assay (IMAP-FP)
Type: biochemical
Details: phosphorylated active hERK2, 30 μM ATP; average; read-out: ERK 2 Human average IC50
Procedure, shortened: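 Phosphorylation by activated human ERK2 (0.5 nM) at 30 μM ATP, peptide substrate 900 nM unlabeled with 80 nM labeled, proceeds 60 min. IMAP beads stop the reaction; after 60 min equilibration, product is measured by fluorescence polarization.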

Sequence of Active Human ERK2 (hERK2) (P28482 whole entry): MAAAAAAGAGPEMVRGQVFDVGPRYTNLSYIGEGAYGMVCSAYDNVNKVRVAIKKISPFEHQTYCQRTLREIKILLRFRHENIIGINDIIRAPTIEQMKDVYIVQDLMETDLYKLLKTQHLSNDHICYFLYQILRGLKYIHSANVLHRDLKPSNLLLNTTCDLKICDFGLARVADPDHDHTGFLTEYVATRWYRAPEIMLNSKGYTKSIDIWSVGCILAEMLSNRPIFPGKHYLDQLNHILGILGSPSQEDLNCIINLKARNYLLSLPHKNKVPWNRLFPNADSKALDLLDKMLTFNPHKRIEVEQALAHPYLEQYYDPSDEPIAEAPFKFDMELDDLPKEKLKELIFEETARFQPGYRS

| SMILES | IC50 [nM] |
| --- | --- |
| C[C@@H](NC(=O)Nc1cc2[nH]nc(-c3cncc(F)c3)c2cn1)c1ccc(F)cc1 [Example 664] | 2.49 |
| Cc1cc(-c2n[nH]c3c(Br)c(NC(=O)N[C@H](C)c4ccccc4)ncc23)ccn1 [Example 79, 1-[7-bromo-3-(2-methylpyridin-4-yl)-1H-pyrazolo[4,3-c]pyridin-6-yl]-3-[(1R)-1-phenylethyl]urea] | 34.5 |
| C[C@@H](NC(=O)Nc1cc2[nH]nc(C(N)C(F)(F)F)c2cn1)c1ccccc1 (stereo partly drawn) [Example 563, 1-(3-(1-amino-2,2,2-trifluoroethyl)-1H-pyrazolo[4,3-c]pyridin-6-yl)-3-((R)-1-phenylethyl)urea] | 251 |
| Cc1cc(-c2n[nH]c3cc(NC(=O)NCC(C)c4ccccc4)ncc23)ccn1 (centres unmarked) [Example 584] | 0.679 |
| Cc1cc(-c2n[nH]c3cc(NC(=O)NC4CC(C)(C)Oc5ccccc54)ncc23)ccn1 (centres unmarked) [Example 271] | 5.93 |
| Cc1cc(-c2n[nH]c3cc(NC(=O)N[C@@H]4CN(C)C[C@H]4c4ccccc4)ncc23)ccn1 [Example 181] | 0.217 |
| CC(F)(F)c1n[nH]c2cc(NC(=O)NCc3ccccc3)ncc12 [Example 667] | 259 |
| C[C@@H](NC(=O)Nc1cc2[nH]nc(C(=O)NCC(O)C(F)F)c2cn1)c1ccccc1 (some centres unmarked) [Example 123] | 4.49 |
| Cc1cc(-c2n[nH]c3cc(NC(=O)NC(C)c4ncccc4C)ncc23)ccn1 (centres unmarked) [Example 349] | 6.57 |
| Cc1cc(-c2n[nH]c3cc(NC(=O)NCc4ccccn4)ncc23)ccn1 [Example 479] | 3.02 |
| C[C@@H](NC(=O)Nc1cc2[nH]nc(C(=O)NCC3CCOC3)c2cn1)c1ccccc1 (some centres unmarked) [Example 121] | 3.83 |
| Cc1cc(-c2n[nH]c3cc(NC(=O)NCc4c(C)cccc4Cl)ncc23)ccn1 [Example 444] | 1.12 |
| Cc1cc(-c2n[nH]c3cc(NC(=O)NC4(c5ccncc5)CCC4)ncc23)ccn1 [Example 352] | 30.2 |
| Cc1cc(-c2n[nH]c3cc(NC(=O)NCCc4nc5ccccc5n4C)ncc23)ccn1 [Example 382] | 6.26 |
| Cc1cc(-c2n[nH]c3cc(NC(=O)N[C@H]4[C@H](c5ccccc5C)CN(C)[C@H]4C)ncc23)ccn1 [Example 555] | 0.426 |
| CC[C@H](NC(=O)Nc1cc2[nH]nc(-c3ccnc(C)c3)c2cn1)c1ccccn1 [Example 217] | 41.6 |
| COC(C)CNC(=O)Nc1cc2[nH]nc(-c3ccnc(C)c3)c2cn1 (centres unmarked) [Example 585] | 1.26 |
| Cc1cc(-c2n[nH]c3cc(NC(=O)NCc4ccc5c(c4)CNC5=O)ncc23)ccn1 [Example 369] | 1.41 |

| SMILES | IC50 [nM] |
| --- | --- |
| C[C@@H](NC(=O)Nc1cc2[nH]nc(-c3cn[nH]c3)c2cn1)c1ccc(F)c(Cl)c1 [Example 74, 1-[(1R)-1-(3-chloro-4-fluorophenyl)ethyl]-3-[3-(1H-pyrazol-4-yl)-1H-pyrazolo[4,3-c]pyridin-6-yl]urea] | 0.603 |
| Cc1cc(-c2n[nH]c3cc(NC(=O)N[C@@H]4CN[C@H](c5ccccc5)C4)ncc23)ccn1 [Example 405] | 14.2 |
| Cc1cc(-c2n[nH]c3cc(NC(=O)N[C@@H]4CN(C)C[C@H]4c4ccccc4)ncc23)ccn1 [Example 582] | 0.234 |
| C[C@@H](NC(=O)Nc1cc2[nH]nc(C3CC3)c2cn1)c1ccccn1 [Example 152] | 116 |
| O=C(NCc1ccc(F)c(Cl)c1)Nc1cc2[nH]nc(-c3ccnc(F)c3)c2cn1 [Example 58, 1-(3-chloro-4-fluorobenzyl)-3-[3-(2-fluoropyridin-4-yl)-1H-pyrazolo[4,3-c]pyridin-6-yl]urea] | 1 |
| Cc1cc(-c2n[nH]c3cc(NC(=O)NCc4ccccc4Cl)ncc23)ccn1 [Example 439] | 1.3 |
| COC[C@@H](NC(=O)Nc1cc2[nH]nc(-c3cnc(OC)nc3)c2cn1)c1ccccc1 [Example 314] | 0.88 |
| Cc1cc(-c2n[nH]c3cc(NC(=O)N(C)Cc4cccnc4)ncc23)ccn1 [Example 46, 1-methyl-3-[3-(2-methylpyridin-4-yl)-1H-pyrazolo[4,3-c]pyridin-6-yl]-1-(pyridin-3-ylmethyl)urea] | 763 |
| COc1cccc(F)c1CN1CCC[C@@H](NC(=O)Nc2cc3[nH]nc(-c4ccnc(F)c4)c3cn2)C1 [Example 649] | 1.06 |
| Cc1cc(-c2n[nH]c3cc(NC(=O)NCC4(Nc5ccccc5)CCOCC4)ncc23)ccn1 [Example 398] | 1.13 |
| Cc1cc(-c2n[nH]c3cc(NC(=O)N[C@H]4CN[C@H](c5ccccc5)C4)ncc23)ccn1 [Example 374] | 351 |
| COC[C@@H](NC(=O)Nc1cc2[nH]nc(-c3ccnc(C)c3)c2cn1)c1ccccn1 [Example 416] | 0.78 |
| C[C@@H](NC(=O)Nc1cc2[nH]nc(-c3cnn(C)c3)c2cn1)C1CCCCC1 [Example 589] | 0.823 |
| COC[C@@H](NC(=O)Nc1cc2[nH]nc(-c3ccc(N4CCOCC4)nc3)c2cn1)c1ccc(F)cc1 [Example 297] | 1.05 |
| CN(C)CCNC(=O)Nc1cc2[nH]nc(-c3ccc(F)cc3)c2cn1 [Example 224] | 24.3 |
| Cc1cc(-c2n[nH]c3cc(NC(=O)NC4CCCOc5ccccc54)ncc23)no1 (centres unmarked) [Example 690] | 240 |
| C[C@@H](NC(=O)Nc1cc2[nH]nc(-c3ccc(C#N)nc3)c2cn1)c1ccc(F)cc1 [Example 254] | 4.59 |

The remaining lines, values ahead:

| IC50 [nM] | SMILES |
| --- | --- |
| 9.13 | C[C@@H](NC(=O)Nc1cc2[nH]nc(C3=CNCN=C3)c2cn1)c1ccc(F)cc1 [Example 663] |
| 31.9 | COC[C@H](NC(=O)Nc1cc2[nH]nc(-c3cnn(C)c3)c2cn1)c1ccccc1 [Example 600, 1-[(1R)-2-methoxy-1-phenylethyl]-3-[3-(1-methyl-1H-pyrazol-4-yl)-1H-pyrazolo[4,3-c]pyridin-6-yl]urea] |
| 0.827 | Cc1cc(-c2n[nH]c3cc(NC(=O)NCc4ncccc4Cl)ncc23)ccn1 [Example 448] |
| 0.333 | Cc1cc(-c2n[nH]c3cc(NC(=O)NC(CCO)c4ccccc4)ncc23)ccn1 (centres unmarked) [Example 334] |
| 4 | Cc1cc(-c2n[nH]c3cc(NC(=O)NC4CCOC4)ncc23)ccn1 (centres unmarked) [Example 577] |
| 81.7 | C[C@@H](NC(=O)Nc1cc2[nH]nc(CS(C)(=O)=O)c2cn1)c1ccccc1 [Example 560] |
| 3.07 | Cc1cc(-c2n[nH]c3cc(NC(=O)NC(c4cccnc4)C(F)F)ncc23)ccn1 (centres unmarked) [Example 509] |
| 5.39 | COC[C@@H](NC(=O)Nc1cc2[nH]nc(-c3cc(C)on3)c2cn1)c1ccc(F)cc1 [Example 688] |
| 1.56 | Cc1cc(-c2n[nH]c3cc(NC(=O)NCc4ccc(F)cc4F)ncc23)ccn1 [Example 513] |
| 1.36 | Cc1cc(-c2n[nH]c3cc(NC(=O)NC4CCc5nc(N)sc5C4)ncc23)ccn1 (centres unmarked) [Example 504] |
| 2.52 | Cc1cc(-c2n[nH]c3cc(NC(=O)NCc4c[nH]nn4)ncc23)ccn1 [Example 431] |
| 1.49 | Cc1cc(-c2n[nH]c3cc(NC(=O)N[C@@H]4CCCc5ncccc54)ncc23)ccn1 [Example 261] |
| 2.87 | Cc1cc(-c2n[nH]c3cc(NC(=O)NCc4c(C)cc(Cl)cc4Cl)ncc23)ccn1 [Example 514] |
| 2.97 | Cc1cc(-c2n[nH]c3cc(NC(=O)NCc4ncco4)ncc23)ccn1 [Example 433] |
| 2.69 | Cc1cc(-c2n[nH]c3cc(NC(=O)NCc4nc(N)cs4)ncc23)ccn1 [Example 473] |
| 2.67 | O=C(Nc1cc2[nH]nc(C3CC3)c2cn1)N[C@@H]1CCCOc2ccccc21 [Example 295] |

Same assay, conditions: read-out: AERK2 IC50 (Active human ERK2 Activity Assay)

| IC50 [nM] | SMILES |
| --- | --- |
| 0.2 to 1.7 | C[C@@H](NC(=O)Nc1cc2[nH]nc(-c3cn[nH]c3)c2cn1)c1ccc(F)c(Cl)c1 [Example 74, 1-[(1R)-1-(3-chloro-4-fluorophenyl)ethyl]-3-[3-(1H-pyrazol-4-yl)-1H-pyrazolo[4,3-c]pyridin-6-yl]urea] |
| 0.2 to 1.7 | O=C(NCc1ccc(F)c(Cl)c1)Nc1cc2[nH]nc(-c3ccnc(F)c3)c2cn1 [Example 58, 1-(3-chloro-4-fluorobenzyl)-3-[3-(2-fluoropyridin-4-yl)-1H-pyrazolo[4,3-c]pyridin-6-yl]urea] |
